In ChEMBL document CHEMBL1131014, “Three-dimensional quantitative similarity-activity relationships (3D QSiAR) from SEAL similarity matrices” (J Med Chem, 1998):

Each compound was assayed against T1, Corticosteroid-binding globulin (Homo sapiens) (UniProt P08185).
T1 sequence (whole entry): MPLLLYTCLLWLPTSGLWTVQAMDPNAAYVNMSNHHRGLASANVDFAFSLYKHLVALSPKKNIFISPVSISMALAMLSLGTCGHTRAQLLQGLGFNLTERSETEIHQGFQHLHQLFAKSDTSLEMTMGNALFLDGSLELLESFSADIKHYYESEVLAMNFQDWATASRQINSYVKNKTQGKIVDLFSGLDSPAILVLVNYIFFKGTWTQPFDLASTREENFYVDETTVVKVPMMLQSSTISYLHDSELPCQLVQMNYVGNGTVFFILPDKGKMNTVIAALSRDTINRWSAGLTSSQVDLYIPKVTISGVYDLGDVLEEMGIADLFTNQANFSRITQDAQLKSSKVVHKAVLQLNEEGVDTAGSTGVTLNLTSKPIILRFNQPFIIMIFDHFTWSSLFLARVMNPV
Description: Binding affinity to corticosteroid binding globulin

Row | Structure (SMILES) | Log K
1 | CC(=O)OCC(=O)[C@@]1(O)CC[C@H]2C3CCC4=CC(=O)CC[C@]4(C)[C@H]3[C@@H](O)C[C@@]21C (single isomer, unassigned) | 7.55
2 | C[C@]12CC[C@H](O)CC1=CC[C@@H]1[C@@H]2CC[C@]2(C)C(=O)CC[C@@H]12 | 5
3 | CC(=O)[C@H]1CC[C@H]2[C@@H]3CCC4=CC(=O)CC[C@]4(C)[C@H]3CC[C@]12C | 7.38
4 | C[C@]12CCC(=O)C=C1CCC1[C@@H]2C(=O)C[C@@]2(C)[C@H]1CC[C@]2(O)C(=O)CO (single isomer, unassigned) | 6.89
5 | CC(=O)[C@@]1(O)CC[C@H]2[C@@H]3CCC4=CC(=O)CC[C@]4(C)[C@H]3CC[C@@]21C | 7.74
6 | CC(=O)[C@H]1CC[C@H]2[C@@H]3CCC4=CC(=O)CC[C@]4(C)[C@H]3C(=O)C[C@]12C | 6.78
7 | C[C@]12CC[C@H]3[C@@H](CCC4=CC(=O)CC[C@@]43C)[C@@H]1CC[C@@H]2O | 6.72
8 | C[C@]12CCC(=O)C=C1CCC1[C@@H]2[C@@H](O)C[C@@]2(C)[C@H]1CC[C@]2(O)C(=O)CO (single isomer, unassigned) | 7.88
9 | C[C@]12CC[C@H]3[C@@H](CCC4=CC(=O)CC[C@@H]43)[C@@H]1CC[C@@H]2O | 6.14
10 | CC(=O)[C@H]1CC[C@H]2[C@@H]3CCC4=CC(=O)CCC4[C@H]3CC[C@]12C (stereo not given in full) | 6.82
11 | CC(=O)[C@@]1(O)CC[C@H]2[C@@H]3CC[C@@H]4C[C@H](O)CC[C@]4(C)[C@H]3CC[C@@]21C | 5
12 | C[C@]12CCC(=O)C=C1CC[C@@H]1[C@@H]2[C@@H](O)C[C@]2(C=O)[C@@H](C(=O)CO)CC[C@@H]12 | 6.28
13 | CC(=O)[C@@]1(O)[C@H](O)C[C@H]2[C@@H]3CCC4=CC(=O)CC[C@]4(C)[C@H]3CC[C@@]21C | 6.25
14 | C[C@]12CCC(=O)C=C1CC[C@@H]1[C@@H]2CC[C@]2(C)C(=O)CC[C@@H]12 | 5.76
15 | C[C@]12CCC(=O)C=C1CC[C@@H]1[C@@H]2CC[C@@]2(C)[C@H]1CC[C@]2(O)C(=O)CO | 7.88
16 | C[C@]12CC[C@H](O)C[C@@H]1CC[C@@H]1[C@@H]2CC[C@]2(C)[C@@H](O)CC[C@@H]12 | 5
17 | C[C@]12C[C@H](O)[C@H]3[C@@H](CCC4=CC(=O)CC[C@@]43C)[C@@H]1CC[C@@H]2C(=O)CO | 7.88
18 | C[C@]12CC[C@@H]3c4ccc(O)cc4CC[C@H]3[C@@H]1C[C@@H](O)[C@@H]2O | 5
19 | CC(=O)[C@H]1[C@H](C)C[C@H]2[C@@H]3CCC4=CC(=O)CC[C@]4(C)[C@H]3CC[C@@]21C | 7.12
20 | C[C@]12C=CC(=O)C=C1CCC1[C@@H]2[C@@H](O)C[C@@]2(C)[C@H]1CC[C@]2(O)C(=O)CO (single isomer, unassigned) | 7.51
21 | C[C@@H]1C[C@@]2(C)C(=CC1=O)CC[C@H]1[C@@H]3CC[C@](O)(C(=O)CO)[C@@]3(C)C[C@H](O)[C@@]12F | 5.8
22 | CC(=O)[C@H]1CC[C@H]2[C@@H]3CC=C4C[C@@H](O)CC[C@]4(C)[C@H]3CC[C@]12C | 5.25
23 | C[C@]12C[C@@H](O)[C@H]3[C@@H](CCC4=CC(=O)CC[C@@]43C)[C@@H]1CC[C@@H]2C(=O)CO | 7.2
24 | C[C@]12CC[C@H]3[C@@H](CCC4=CC(=O)CC[C@@]43C)[C@@H]1CC[C@@H]2C(=O)CO | 7.65

What follows are compounds tested against T2, Corticosteroid-binding globulin (Sus scrofa) (UniProt Q9GK37).
T2 sequence (whole entry): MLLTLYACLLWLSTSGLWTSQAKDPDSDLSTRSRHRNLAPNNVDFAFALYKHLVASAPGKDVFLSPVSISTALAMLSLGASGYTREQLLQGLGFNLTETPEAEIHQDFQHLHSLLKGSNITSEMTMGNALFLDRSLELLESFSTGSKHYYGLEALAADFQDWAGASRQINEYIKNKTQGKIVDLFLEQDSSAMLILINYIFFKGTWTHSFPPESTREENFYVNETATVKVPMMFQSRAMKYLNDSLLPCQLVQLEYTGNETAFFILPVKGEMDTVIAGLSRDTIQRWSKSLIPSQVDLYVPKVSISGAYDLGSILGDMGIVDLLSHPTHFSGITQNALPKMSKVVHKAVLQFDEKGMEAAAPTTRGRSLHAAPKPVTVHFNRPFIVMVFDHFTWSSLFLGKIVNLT
Description: Compound was tested for Corticosteroid binding globulin affinity

Row | Structure (SMILES) | Log K
25 | C[C@]12CC[C@@H]3c4ccc(O)cc4CC[C@H]3[C@@H]1CC[C@@H]2O | 5
